The values that follow come from patent publication US8846710B2, “Method of preferentially inducing the biosynthesis of interferon” (3M Innovative Properties Company, priority 2005, dated 2014).

Test [1] deals with interferon (α) (IFN-α). Put plainly: Cytokine induction in human cells: IFN-α secreted by PBMC into culture media (ELISA). It counts as cell-based. The following applies: Table 10; for minimal effective concentration: human PBMC, lowest tested concentration inducing IFN-α over usually 20 pg/mL, median where more than one experiment, read-out: Minimum Effective Concentration (μM) IFN; for Maximal Response (pg/mL) IFN: maximal response in dose response curve, * = below experimental background level, median. The text has this: (§1) Cytokine Induction in Human Cells
(§2) An in vitro human blood cell system is used to assess cytokine induction. Activity is based on the measurement of interferon (α) and tumor necrosis factor (α) (IFN-α and TNF-α, respectively) secreted into culture media as described by Testerman et. al. in “Cytokine Induction by the Immunomodulators Imiquimod and S-27609”, Journal of Leukocyte Biology, 58, 365-372 (September, 1995).
(§3) Blood Cell Preparation for Culture
(§4) Whole blood from healthy human donors is collected by venipuncture into vacutainer tubes or syringes containing EDTA. Peripheral blood mononuclear cells (PBMC) are separated from whole blood by density gradient centrifugation using HISTOPAQUE-1077 (Sigma, St. Louis, Mo.) or Ficoll-Paque Plus (Amersham Biosciences Piscataway, N.J.). Blood is diluted 1:1 with Dulbecco's Phosphate Buffered Saline (DPBS) or Hank's Balanced Salts Solution (HBSS). Alternately, whole blood is placed in Accuspin (Sigma) or LeucoSep (Oreiner Bio-One, Inc., Longwood, Fla.) centrifuge frit tubes containing density gradient medium. The PBMC layer is collected and washed twice with DPBS or HBSS and re-suspended at 4×10^6 cells/mL in RPMI complete. The PBMC suspension is added to 96 well flat bottom sterile tissue culture plates containing an equal volume of RPMI complete media containing test compound.
(§5) The compounds are solubilized in dimethyl sulfoxide (DMSO). The DMSO concentration should not exceed a final concentration of 1% for addition to the culture wells. The compounds are generally tested at concentrations ranging from 30-0.014 μM. Controls include cell samples with media only, cell samples with DMSO only (no compound), and cell samples with reference compound.
(§6) The solution of test compound is added at 60 μM to the first well containing RPMI complete and serial 3 fold dilutions are made in the wells. The PBMC suspension is then added to the wells in an equal volume, bringing the test compound concentrations to the desired range (usually 30-0.014 μM). The final concentration of PBMC suspension is 2×10^6 cells/mL. The plates are covered with sterile plastic lids, mixed gently and then incubated for 18 to 24 hours at 37° C. in a 5% carbon dioxide atmosphere.
(§7) Following incubation the plates are centrifuged for 10 minutes at 1000 rpm (approximately 200×g) at 4° C. The cell-free culture supernatant is removed and transferred to sterile polypropylene tubes. Samples are maintained at −30 to −70° C. until analysis. The samples are analyzed for IFN-α by ELISA and for TNF-α by IGEN/BioVeris Assay.
(§8) Interferon (α) and Tumor Necrosis Factor (α) Analysis
IFN-α concentration is determined with a human multi-subtype calorimetric sandwich ELISA (Catalog Number 41105) from PBL Biomedical Laboratories, Piscataway, N.J. Results are expressed in pg/mL.
(§9) In total, the data output of the assay consists of concentration values of TNF-α and IFN-α (y-axis) as a function of compound concentration (x-axis).
Analysis of the data has two steps. First, the greater of the mean DMSO (DMSO control wells) or the experimental background (usually 20 pg/mL for IFN-α and 40 pg/mL for TNF-α) is subtracted from each reading. If any negative values result from background subtraction, the reading is reported as “*”, and is noted as not reliably detectable. In subsequent calculations and statistics, “*”, is treated as a zero. Second, all background subtracted values are multiplied by a single adjustment ratio to decrease experiment to experiment variability. The adjustment ratio is the area of the reference compound in the new experiment divided by the expected area of the reference compound based on the past 61 experiments (unadjusted readings). […] The reference compound used is 2-[4-amino-2-ethoxymethyl-6,7,8,9-tetrahydro-α,α-dimethyl-1H-imidazo[4,5-c]quinolin-1-yl]ethanol hydrate (U.S. Pat. No. 5,352,784; Example 91) and the expected area is the sum of the median dose values from the past 61 experiments. […]

In test [2] the test system is tumor necrosis factor (α) (TNF-α). Put plainly: Cytokine induction in human cells: TNF-α secreted by PBMC into culture media (ORIGEN M-Series immunoassay). It counts as cell-based. The following applies: Table 10; for minimal effective concentration: human PBMC, lowest tested concentration inducing TNF-α over usually 40 pg/mL, median where more than one experiment, read-out: Minimum Effective Concentration (μM) TNF; for Maximal Response (pg/mL) TNF: maximal response in dose response curve, * = below experimental background level, median.
Source text: as §1, §2, §3, §4, §5, §6, §7, §8
The TNF-α concentration is determined by ORIGEN M-Series Immunoassay and read on an IGEN M-8 analyzer from BioVeris Corporation, formerly known as IGEN International, Gaithersburg, Md. The immunoassay uses a human TNF-α capture and detection antibody pair (Catalog Numbers AHC3419 and AHC3712) from Biosource International, Camarillo, Calif. Results are expressed in pg/mL.
as §9
Analysis of the data has two steps. First, the greater of the mean DMSO (DMSO control wells) or the experimental background (usually 20 pg/mL for IFN-α and 40 pg/mL for TNF-α) is subtracted from each reading. If any negative values result from background subtraction, the reading is reported as “*”, and is noted as not reliably detectable. In subsequent calculations and statistics, “*”, is treated as a zero. Second, all background subtracted values are multiplied by a single adjustment ratio to decrease experiment to experiment variability. The adjustment ratio is the area of the reference compound in the new experiment divided by the expected area of the reference compound based on the past 61 experiments (unadjusted readings). […]

Turning to `COCc1nc2c(N)nc3cc(-c4cccnc4)ccc3c2n1CC(C)(C)O` [Analog 11], in test [1], the minimal effective concentration turned out to be 0.37 µM and the “Maximal Response (pg/mL) IFN” value is recorded as 829 pg/mL. Also, in test [2], the minimal effective concentration is 1.11 µM and the “Maximal Response (pg/mL) TNF” value is 3445 pg/mL.
For `COCCc1nc2c(N)nc3cc(-c4cccnc4)ccc3c2n1CC(C)(C)O` [Analog 12], in that order: 0.014 µM, 1065 pg/mL, 0.014 µM and 8386 pg/mL.
For `COCc1nc2c(N)nc3cc(-c4cncc(CO)c4)ccc3c2n1CC(C)(C)O` [Analog 13], in that order: 0.12 µM, 1771 pg/mL, 3.33 µM and 8000 pg/mL.
For `CCOCc1nc2c(N)nc3cc(-c4cncc(CO)c4)ccc3c2n1CC(C)(C)O` [Analog 14], in that order: 0.014 µM, 6308 pg/mL, 0.12 µM and 18284 pg/mL.
`CCc1nc2c(N)nc3cc(-c4cncc(CO)c4)ccc3c2n1CC(C)(C)O` [Analog 15]: in test [1], the minimal effective concentration amounted to 0.014 µM and the “Maximal Response (pg/mL) IFN” value was 2084 pg/mL. In addition, in test [2], the minimal effective concentration came out at 1.11 µM and the “Maximal Response (pg/mL) TNF” value worked out at 10087 pg/mL.
For `COCCc1nc2c(N)nc3cc(-c4cncc(CO)c4)ccc3c2n1CC(C)(C)O` [Analog 16], in that order: 0.014 µM, 5868 pg/mL, 0.04 µM and 16296 pg/mL.
For `CCCc1nc2c(N)nc3cc(-c4cncc(CO)c4)ccc3c2n1CC(C)(C)O` [Analog 17], in that order: 0.014 µM, 1079 pg/mL, 0.12 µM and 16482 pg/mL.
Consider `CCOCc1nc2c(N)nc3cc(-c4cccnc4)ccc3c2n1CC1CCN(C(=O)C(C)C)CC1` [Analog 18], for which, in test [1], the minimal effective concentration came out at 0.12 µM and the “Maximal Response (pg/mL) IFN” value came out at 2979 pg/mL. For the same compound, in test [2], the minimal effective concentration stood at 0.37 µM and the “Maximal Response (pg/mL) TNF” value stood at 1449 pg/mL.
Regarding `CCc1nc2c(N)nc3cc(-c4cccnc4)ccc3c2n1CC1CCN(C(=O)C(C)C)CC1` [Analog 19], in test [1], the minimal effective concentration came out at 0.12 µM and the “Maximal Response (pg/mL) IFN” value was determined as 1686 pg/mL. In test [2], the minimal effective concentration came to 1.11 µM and the “Maximal Response (pg/mL) TNF” value is given as 619 pg/mL.
For `CCCc1nc2c(N)nc3cc(-c4cccnc4)ccc3c2n1CC1CCN(C(=O)C(C)C)CC1` [Analog 20], in that order: 0.12 µM, 1157 pg/mL, 0.37 µM and 1054 pg/mL.
Take `COCCc1nc2c(N)nc3cc(-c4ccccc4)ccc3c2n1CCCN1CCCC1=O` [Analog 21]: in test [1], the minimal effective concentration is 0.12 µM and the “Maximal Response (pg/mL) IFN” value was 1880 pg/mL. Besides, in test [2], the minimal effective concentration is on record as 1.11 µM and the “Maximal Response (pg/mL) TNF” value was 201 pg/mL.
For `CCOCc1nc2c(N)nc3cc(-c4ccccc4)ccc3c2n1CCCN1CCCC1=O` [Analog 22], in test [1], the minimal effective concentration was 0.37 µM and the “Maximal Response (pg/mL) IFN” value is recorded as 1665 pg/mL. In test [2], the minimal effective concentration is recorded as 1.11 µM and the “Maximal Response (pg/mL) TNF” value is 62 pg/mL.
On the same counts, the results for `COCCc1nc2c(N)nc3cc(-c4ccccc4)ccc3c2n1CC(C)(C)O` [Analog 23] are 0.014 µM, 260 pg/mL, 0.014 µM and 2296 pg/mL.
On the same counts, the results for `CCOCc1nc2c(N)nc3cc(-c4ccccc4)ccc3c2n1CC(C)(C)O` [Analog 24] are 0.014 µM, 440 pg/mL, 0.12 µM and 2238 pg/mL.
For `COCCc1nc2c(N)nc3cc(-c4cccnc4)ccc3c2n1CC(C)C` [Analog 25], in that order: 0.014 µM, 1199 pg/mL, 0.04 µM and 3151 pg/mL.
`CCOCc1nc2c(N)nc3cc(-c4cccnc4)ccc3c2n1CC(C)C` [Analog 26]: in test [1], the minimal effective concentration turned out to be 0.014 µM and the “Maximal Response (pg/mL) IFN” value worked out at 591 pg/mL. Further, in test [2], the minimal effective concentration is given as 0.12 µM and the “Maximal Response (pg/mL) TNF” value is 647 pg/mL.
Regarding `COCCc1nc2c(N)nc3cc(-c4cncc(CO)c4)ccc3c2n1CC(C)C` [Analog 27], in test [1], the minimal effective concentration was 0.014 µM and the “Maximal Response (pg/mL) IFN” value is listed as 1332 pg/mL. In test [2], the minimal effective concentration was 0.04 µM and the “Maximal Response (pg/mL) TNF” value turned out to be 9563 pg/mL.
On the same counts, the results for `CCOCc1nc2c(N)nc3cc(-c4cncc(CO)c4)ccc3c2n1CC(C)C` [Analog 28] are 0.04 µM, 1263 pg/mL, 0.37 µM and 3885 pg/mL.
For `CCCNC(=O)NCCCCn1c(COCC)nc2c(N)nc3cc(-c4cccnc4)ccc3c21` [Analog 29], in that order: 0.04 µM, 936 pg/mL, 1.11 µM and 1059 pg/mL.
For `CCCNC(=O)NCCCCn1c(CCC)nc2c(N)nc3cc(-c4cccnc4)ccc3c21` [Analog 30], in that order: 0.37 µM, 531 pg/mL, 0.37 µM and 5284 pg/mL.
